{"source": "BindingDB's records for doi:10.1021/acs.jmedchem.8b00685", "about": "(University of Glasgow, 2018)", "note": "pIC50: −log10 of the molar value."}
{"test": "Inhibition of human 20S constitutive proteasome beta-2 using Bz-VGR-AMC as substrate after 60 mins by fluorescence assay"}
{"smiles": "CC(C)C[C@H](NC(=O)[C@H](CC(C)C)NC(=O)[C@H](Cc1ccccc1)NC(=O)OC(C)(C)C)C(=O)N[C@@H](CCCNC(=N)N)CS(=O)(=O)F", "pIC50": 6.15}
{"smiles": "CC(C)C[C@H](NC(=O)[C@H](CC(C)C)NC(=O)[C@@H](N)Cc1ccccc1)C(=O)N[C@@H](Cc1ccc(CN)cc1)CS(=O)(=O)F", "pIC50": 6.85}
{"smiles": "CC(C)C[C@H](NC(=O)[C@H](Cc1ccccc1)N=[N+]=[N-])C(=O)N[C@@H](CC(C)C)C(=O)N[C@@H](CCCNC(=N)N)CS(=O)(=O)F", "pIC50": 6.46}
{"smiles": "CC(C)C[C@H](NC(=O)[C@H](Cc1ccccc1)N=[N+]=[N-])C(=O)N[C@@H](CC(C)C)C(=O)N[C@@H](CCCCN)CS(=O)(=O)F", "pIC50": 6.15}
{"smiles": "CC(=O)N[C@@H](Cc1ccccc1)C(=O)N[C@@H](CC(C)C)C(=O)N[C@@H](CC(C)C)C(=O)N[C@@H](Cc1ccc(CN)cc1)CS(=O)(=O)F", "pIC50": 6.92}
{"smiles": "CC(C)C[C@H](NC(=O)[C@H](CC(C)C)NC(=O)[C@H](Cc1ccccc1)NC(=O)OCc1ccccc1)C(=O)N[C@@H](CCCNC(=N)N)CS(=O)(=O)F", "pIC50": 6.82}
{"smiles": "CC(C)C[C@H](NC(=O)OCc1ccccc1)C(=O)N[C@@H](CC(C)C)C(=O)N[C@@H](CC(C)C)C(=O)N[C@@H](CCCNC(=N)N)CS(=O)(=O)F", "pIC50": 6.70}
{"smiles": "CC(C)C[C@H](NC(=O)[C@H](CC(C)C)NC(=O)[C@@H](N)Cc1ccccc1)C(=O)N[C@@H](Cc1ccc(N)cc1)CS(=O)(=O)F", "pIC50": 6.66}
{"smiles": "CC(C)C[C@H](NC(=O)[C@H](CC(C)C)NC(=O)[C@@H](N)Cc1ccccc1)C(=O)N[C@@H](CCCNC(=N)N)CS(=O)(=O)F", "pIC50": 6.60}
{"smiles": "CC(=O)N[C@@H](Cc1ccccc1)C(=O)N[C@@H](CC(C)C)C(=O)N[C@@H](CC(C)C)C(=O)N[C@@H](Cc1ccc(N)cc1)CS(=O)(=O)F", "pIC50": 5.68}
{"smiles": "CC(C)C[C@H](NC(=O)[C@H](CC(C)C)NC(=O)[C@@H](N)Cc1ccccc1)C(=O)N[C@@H](CCCCN)CS(=O)(=O)F", "pIC50": 6.33}
{"smiles": "CC(=O)N[C@@H](Cc1ccccc1)C(=O)N[C@@H](CC(C)C)C(=O)N[C@@H](CC(C)C)C(=O)N[C@@H](CCCNC(=N)N)CS(=O)(=O)F", "pIC50": 6.01}
{"smiles": "CC(=O)N[C@@H](Cc1ccccc1)C(=O)N[C@@H](CC(C)C)C(=O)N[C@@H](CC(C)C)C(=O)N[C@@H](CCCCN)CS(=O)(=O)F", "pIC50": 5.82}
